The numbers were not newly measured in patent publication US20160101079A1 (priority 2014, published 2016), which cites them from elsewhere.

Data set [1] deals with glycoprotein shedding (Ebola virus GP; TACE).
Another data set relates to rotaviruses. The note with it: 10 mM.
Data set [2] concerns Human Foreskin (HF) cells infected with HSV-2-strain G. The conditions noted are these: 3 to 1.5 mM.

As to `COc1ccc(S(=O)(=O)N2Cc3ccccc3C[C@@H]2C(=O)NO)cc1` [MMP-8 inhibitor I], the “concentration at which inhibition of GP shedding was observed” value (“concentration at which inhibition” below) in data set [1] was 5 mM.

Consider `O=C(O)CN(CCN(CC(=O)O)CC(=O)O)CC(=O)O` [EDTA, ethylenediaminetetraacetic acid], for which the “effect on rotavirus particles” value with rotaviruses is “single-shelled, double-layered, non-infectious viral particles”.

For the compound `CNC(=O)[C@H](Cc1c[nH]c2ccccc12)NC(=O)[C@@H](CC(=O)NO)CC(C)C` [GM6001], in data set [1], the “concentration at which inhibition” value is recorded as 5 mM.

Consider `O=C(O)c1ccccn1` [picolinic acid], for which, in data set [2], the “effect on HSV-2 infected HF cells” value is recorded as “cause apoptosis of HF infected cells”.

`CNC(=O)[C@@H](NC(=O)[C@H](CC(C)C)[C@H](O)C(=O)NO)C(C)(C)C` [BB2516]: the “concentration at which inhibition” value in data set [1] was 0.5 mM.
